Literature values, collected in PMC7745548 (International Journal of Tryptophan Research : IJTR, 2020).

Key:
CYP2C9 = conditions: O-demethylation major pathway
[1] = test system: human microsomal P450 1A2 (CYP1A2); conditions: different crystal structure (PDB code: 1FAG) ref 26, 28

| Metabolism by CYP2C9 (CYP2C9) | Metabolism by CYP1A2 (CYP1A2) | Distance between SOM and Fe(II) ion of heme [1] [Å] | Structure (SMILES) |
| --- | --- | --- | --- |
| mainly metabolised by CYP2C9 | only slightly metabolised by CYP1A2 | – | COc1ccc2c(c1)c(CC(=O)O)c(C)n2C(=O)c1ccc(Cl)cc1 [Indomethacin] |
| – | – | 4.15 | COc1ccc2[nH]cc(CCNC(C)=O)c2c1 [MLT, N-acetyl-5-methoxytryptamine] |
